Measurements published in US9981909B2 (Janssen Pharmaceutica NV, priority 2008, dated 2018).
Counter-ions that a name gives are not always drawn. Like-named read-outs stand apart in the source and are kept apart here.

What was measured:
human SERT = human SERT (Homo sapiens (Human), UniProt P31645); assay: human SERT binding assay with [3H]-citalopram on HEK-293 membranes; details: read-out: hSERT binding Ki
h5HT2C [1] = target: T1, h5HT2C (Homo sapiens (Human), UniProt P28335); assay: h5HT2C binding
T1 sequence (P28335 33-458): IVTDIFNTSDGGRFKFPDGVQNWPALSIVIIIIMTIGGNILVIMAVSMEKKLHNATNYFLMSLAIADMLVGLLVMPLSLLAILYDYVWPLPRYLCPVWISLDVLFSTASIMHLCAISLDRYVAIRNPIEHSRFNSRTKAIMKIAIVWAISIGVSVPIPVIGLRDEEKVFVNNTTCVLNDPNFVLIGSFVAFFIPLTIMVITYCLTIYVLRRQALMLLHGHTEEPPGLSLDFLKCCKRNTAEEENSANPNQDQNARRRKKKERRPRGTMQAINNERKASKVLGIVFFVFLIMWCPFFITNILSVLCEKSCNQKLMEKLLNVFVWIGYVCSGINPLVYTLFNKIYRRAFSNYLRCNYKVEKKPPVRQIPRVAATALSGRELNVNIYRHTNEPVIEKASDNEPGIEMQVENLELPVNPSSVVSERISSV

rat 5-HT7 receptor = rat 5-HT7 receptor (Rattus norvegicus (Rat), UniProt P32305); assay: r5-HT7 binding assay, competitive radioligand binding with [3H]5-CT
Chain of rat 5-HT7 receptor (P32305 1-435): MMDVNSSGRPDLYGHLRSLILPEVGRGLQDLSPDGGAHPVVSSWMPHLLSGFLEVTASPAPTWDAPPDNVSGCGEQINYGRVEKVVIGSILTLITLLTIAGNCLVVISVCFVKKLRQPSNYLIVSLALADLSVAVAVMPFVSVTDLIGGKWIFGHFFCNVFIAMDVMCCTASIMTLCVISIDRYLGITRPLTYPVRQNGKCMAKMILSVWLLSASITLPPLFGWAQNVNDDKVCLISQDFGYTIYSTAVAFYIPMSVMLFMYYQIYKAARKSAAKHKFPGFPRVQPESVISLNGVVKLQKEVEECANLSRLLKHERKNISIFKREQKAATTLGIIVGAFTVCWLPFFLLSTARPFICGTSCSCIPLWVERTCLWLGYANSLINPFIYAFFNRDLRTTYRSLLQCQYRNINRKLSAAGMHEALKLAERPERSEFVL
In short: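 For antagonism, cells expressing the rat receptor are pretreated with compound (10 min) and stimulated with 100 nM 5-CT (20 min). Lysates are assayed for cAMP by competitive immunoassay. Binding uses [3H]5-CT competition on HEK-293 membranes, giving Ki.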

h5HT2A [2] = target: T2, h5HT2A (Homo sapiens (Human), UniProt P28223); assay: h5HT2A binding
T2 sequence (P28223 whole entry): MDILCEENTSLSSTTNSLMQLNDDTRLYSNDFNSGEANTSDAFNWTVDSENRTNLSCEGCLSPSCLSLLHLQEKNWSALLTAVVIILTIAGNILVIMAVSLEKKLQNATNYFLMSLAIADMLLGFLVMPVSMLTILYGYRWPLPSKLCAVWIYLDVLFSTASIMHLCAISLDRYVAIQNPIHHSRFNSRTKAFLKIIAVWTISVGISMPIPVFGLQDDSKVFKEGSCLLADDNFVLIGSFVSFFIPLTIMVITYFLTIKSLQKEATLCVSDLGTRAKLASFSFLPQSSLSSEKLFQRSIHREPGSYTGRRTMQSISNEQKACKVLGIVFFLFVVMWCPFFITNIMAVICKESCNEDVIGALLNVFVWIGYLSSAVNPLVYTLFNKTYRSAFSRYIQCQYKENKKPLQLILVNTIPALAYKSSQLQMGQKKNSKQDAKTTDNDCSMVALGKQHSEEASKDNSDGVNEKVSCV

h5-HT6 = h5-HT6 (Homo sapiens (Human), UniProt P50406); assay: h5-HT6 binding assay with [3H]LSD on HEK-293 membranes; details: read-out: h5HT6 binding Ki
Chain of h5-HT6 (P50406 whole entry): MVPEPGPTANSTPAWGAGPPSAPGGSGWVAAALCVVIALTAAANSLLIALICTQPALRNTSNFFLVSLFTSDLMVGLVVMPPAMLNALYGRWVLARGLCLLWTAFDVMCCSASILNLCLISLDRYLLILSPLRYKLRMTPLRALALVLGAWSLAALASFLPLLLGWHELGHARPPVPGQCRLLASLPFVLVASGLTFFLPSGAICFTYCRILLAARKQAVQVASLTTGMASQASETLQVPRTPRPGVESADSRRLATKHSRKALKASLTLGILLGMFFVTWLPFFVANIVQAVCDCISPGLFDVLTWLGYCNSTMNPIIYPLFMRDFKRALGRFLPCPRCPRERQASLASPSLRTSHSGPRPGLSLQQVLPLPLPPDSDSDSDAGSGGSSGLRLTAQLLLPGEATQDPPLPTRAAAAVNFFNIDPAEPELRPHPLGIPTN
Experimental: Receptor binding was performed using membrane fractions prepared from the HEK-293 cell line recombinantly expressing rat 5-HT7 receptors (NCBI accession NM_022938). Compound affinity for the rat 5-HT7 receptor subtype was evaluated by competitive radioligand binding assays using 5-carboxamido[^3H]tryptamine ([^3H]5-CT) (Amersham Biosciences, cat. 90000403) detection. HitHunter™ cAMP assays are in-vitro based competitive immunoassays. The assay was performed on the HEK-293 cell line stably transfected with r5-HT7 receptor. Cells were pre-incubated with test compounds for 10 minutes. For antagonist testing, the cells were then challenged with 100 nM 5-CT for 20 minutes. Cells were then lysed and cAMP measured according to manufacturers protocol (Amersham, cat. NET791250UC) or [^3H]mesulergine (Amersham, cat. TRK1041). The assay was performed on membranes prepared from HEK-293 cells stably transfected with h5-HT6. Following centrifugation, membranes were resuspended and incubated for 60 min at room temperature with 1.7 nM [^3H]LSD in the presence of increasing concentration of test compounds. Nonspecific binding was defined in the presence of 10 μM clozapine (Tocris, cat. TRK1068). Homogenized HEK-293 membranes expressing the human SERT were incubated in 50 mM Tris-HCl (pH 7.5), 120 mM NaCl, 5 mM KCl with [^3H]-citalopram (3 nM) with or without test compounds. Nonspecific binding was determined in the presence of 10 μM fluoxetine. Radioactivity readouts and Ki values were performed as previously described for r5-HT7. […] Compounds were assayed in their free form or as salts, as indicated in the Examples section above.

h5HT2B [3] = target: T3, h5HT2B (Homo sapiens (Human), UniProt P41595); assay: h5HT2B binding
T3 sequence (P41595 whole entry): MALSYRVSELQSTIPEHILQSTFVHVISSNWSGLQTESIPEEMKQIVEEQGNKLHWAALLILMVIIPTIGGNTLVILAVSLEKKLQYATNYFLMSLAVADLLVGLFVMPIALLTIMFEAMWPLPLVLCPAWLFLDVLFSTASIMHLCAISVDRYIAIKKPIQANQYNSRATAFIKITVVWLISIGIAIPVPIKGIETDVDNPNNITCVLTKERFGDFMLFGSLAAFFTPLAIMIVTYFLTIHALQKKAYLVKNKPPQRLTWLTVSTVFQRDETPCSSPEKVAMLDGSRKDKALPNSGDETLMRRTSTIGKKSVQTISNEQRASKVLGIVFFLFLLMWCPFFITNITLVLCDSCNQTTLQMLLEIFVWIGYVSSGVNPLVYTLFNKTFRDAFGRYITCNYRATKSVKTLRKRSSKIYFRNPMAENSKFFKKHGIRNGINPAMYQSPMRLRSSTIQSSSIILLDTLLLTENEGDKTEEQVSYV

h5HT2C [4] = target: T1, h5HT2C; assay: h5HT2C binding; remark: listed apart in the source
r5-HT7 receptor = r5-HT7 receptor (Rattus norvegicus (Rat), UniProt P32305); assay: HitHunter cAMP assay, antagonist testing against 100 nM 5-CT; assay type: cell-based; details: antagonist testing, 100 nM 5-CT challenge, HEK-293 r5-HT7; read-out: R5HT7 cAMP pKb (converted)
Chain of r5-HT7 receptor (P32305 1-435): as the sequence (P32305 1-435) above
In short: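 Whole r5-HT7-transfected HEK-293 cells first received test compound for 10 min. They were then exposed to 100 nM 5-CT for 20 min before lysis and competitive immunoassay of cAMP. Affinity came from displacement of [3H]5-CT on membranes of the same recombinant line, expressed as Ki.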

h5HT2A [5] = target: T2, h5HT2A; assay: h5HT2A binding; remark: listed apart in the source
h5HT2B [6] = target: T3, h5HT2B; assay: h5HT2B binding; remark: listed apart in the source
[7] = rat 5-HT7 receptor, HEK-293 membranes
[8] = h5-HT6, [3H]LSD, HEK-293 membranes

Chain of human SERT (P31645 whole entry): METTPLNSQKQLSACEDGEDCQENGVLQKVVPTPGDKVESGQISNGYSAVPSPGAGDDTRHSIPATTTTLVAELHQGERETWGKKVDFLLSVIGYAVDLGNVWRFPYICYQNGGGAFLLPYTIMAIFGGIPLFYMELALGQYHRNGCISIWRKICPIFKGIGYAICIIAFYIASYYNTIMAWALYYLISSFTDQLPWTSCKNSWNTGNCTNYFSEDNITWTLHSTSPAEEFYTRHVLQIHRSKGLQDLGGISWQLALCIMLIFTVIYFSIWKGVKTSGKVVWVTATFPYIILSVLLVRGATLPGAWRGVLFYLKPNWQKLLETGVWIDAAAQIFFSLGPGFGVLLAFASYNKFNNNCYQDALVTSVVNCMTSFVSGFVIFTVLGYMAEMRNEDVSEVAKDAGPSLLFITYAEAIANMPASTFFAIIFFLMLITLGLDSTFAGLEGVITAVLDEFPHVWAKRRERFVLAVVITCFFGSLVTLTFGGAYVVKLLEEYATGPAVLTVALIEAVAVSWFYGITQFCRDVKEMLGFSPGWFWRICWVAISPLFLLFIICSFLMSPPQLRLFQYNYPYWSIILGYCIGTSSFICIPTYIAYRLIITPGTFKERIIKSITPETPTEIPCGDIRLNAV

SMILES	Ki (human SERT)	Ki (h5HT2C [1])	Ki (rat 5-HT7 receptor; [7])	Ki (h5HT2A [2])	Ki (h5-HT6; [8])	Ki (h5HT2B [3])	Ki (h5HT2C [4])	Ki (rat 5-HT7 receptor; rat 5-HT7, HEK-293 membranes)	Kb (r5-HT7 receptor)	Ki (h5-HT6; h5-HT6, HEK-293 membranes, [3H]LSD)	Ki (h5HT2A [5])	Ki (h5HT2B [6])
CC(Oc1ccc(Br)cc1OC1CNC1)c1cccc(Cl)c1 (racemic) [Example 111, (±)-3-[5-Bromo-2-[1-(3-chloro-phenyl)-ethoxy]-phenoxy]-azetidine]	118 nM	331 nM	10 nM	73 nM	268 nM	69 nM	–	–	–	–	–	–
C[C@@H]1NC[C@H]1Oc1cc(Br)ccc1OCc1cccc(F)c1 (racemic) [Example 219, (±)-trans-3-[5-Bromo-2-(3-fluoro-benzyloxy)-phenoxy]-2-methyl-azetidine]	68 nM	–	–	–	–	–	31 nM	9 nM	–	–	–	–
CC(Oc1ccc(Cl)cc1OC1CNC1)c1cccc(C(F)(F)F)c1 (stereo in doubt) [Example 101, (S)-3-[5-Chloro-2-[1-(3-trifluoromethyl-phenyl)-ethoxy]-phenoxy]-azetidine]	152 nM	933 nM	5 nM	317 nM	746 nM	203 nM	–	–	–	–	–	–
Clc1cccc(COc2ccc(Br)cc2OC2CNC2)c1 [Example 2, 3-[5-Bromo-2-(3-chloro-benzyloxy)-phenoxy]-azetidine]	1 nM	760 nM	12 nM	42 nM	47 nM	74 nM	–	–	31.6 nM	–	–	–
Clc1ccccc1COc1ccc(Br)cc1OC1CNC1 [Example 15, 3-[5-Bromo-2-(2-chloro-benzyloxy)-phenoxy]-azetidine trifluoroacetate]	5 nM	–	17 nM	–	45 nM	–	–	–	631 nM	–	–	–
Fc1cccc(COc2ccc(Br)cc2OC2CNC2)c1 [Example 17, 3-[5-Bromo-2-(3-fluoro-benzyloxy)-phenoxy]-azetidine trifluroacetate]	4 nM	–	10 nM	–	39 nM	–	–	–	50.1 nM	–	–	–
Clc1cccc(COc2ccc(Cl)cc2OC2CNC2)c1 [Example 37, 3-[5-Chloro-2-(3-chloro-benzyloxy)-phenoxy]-azetidine]	7 nM	–	8 nM	–	89 nM	–	–	–	126 nM	–	–	–
CN1CC(Oc2cc(Cl)ccc2OCc2cccc(Cl)c2)C1 [Example 38, 3-[5-Chloro-2-(3-chloro-benzyloxy)-phenoxy]-1-methyl-azetidine]	100 nM	–	6 nM	–	36 nM	–	–	–	10 nM	–	–	–
FC(F)(F)c1ccc(COc2ccc(Cl)cc2OC2CNC2)o1 [Example 54, 3-[5-Chloro-2-(5-trifluoromethyl-furan-2-ylmethoxy)-phenoxy]-azetidine]	28 nM	–	6 nM	–	77 nM	–	–	–	7.94 nM	–	–	–
CN1CC[C@@H](Oc2cc(Cl)ccc2OCc2cccc(Cl)c2)C1 [Example 59, (R)-3-[5-Chloro-2-(3-chloro-benzyloxy)-phenoxy]-1-methyl-pyrrolidine]	353 nM	–	27 nM	–	84 nM	–	–	–	15.8 nM	–	–	–
Clc1cccc(COc2ccc(Br)cc2OC2CCNCC2)c1 [Example 65, 4-[5-Bromo-2-(3-chloro-benzyloxy)-phenoxy]-piperidine]	14 nM	–	11 nM	–	41 nM	–	–	–	126 nM	–	–	–
C[C@@H](Oc1ccc(Br)cc1OC1CNC1)c1cccc(C(F)(F)F)c1 [Example 113, (R)-3-[5-Bromo-2-[1-(3-trifluoromethyl-phenyl)-ethoxy]-phenoxy]-azetidine]	–	490 nM	11 nM	206 nM	496 nM	122 nM	–	–	–	–	–	–
C[C@@H](Oc1ccc(Cl)cc1OC1CCNCC1)c1cccc(C(F)(F)F)c1 [Example 135, (R)-4-[5-Chloro-2-[1-(3-trifluoromethyl-phenyl)-ethoxy]-phenoxy]-piperidine]	96 nM	755 nM	15 nM	140 nM	1280 nM	27 nM	–	–	–	–	–	–
COc1ccc2c(c1)CC(Oc1ccc(Cl)cc1OC1CNC1)C2 (stereo not shown) [Example 177, 3-[5-Chloro-2-(5-methoxy-indan-2-yloxy)-phenoxy]-azetidine]	262 nM	140 nM	12 nM	35 nM	123 nM	56 nM	–	–	–	–	–	–
Clc1cccc(CCOc2ccc(Cl)cc2OC2CNC2)c1 [Example 185, 3-[5-Chloro-2-[2-(3-chloro-phenyl)-ethoxy]-phenoxy]-azetidine]	29 nM	91 nM	6 nM	8 nM	177 nM	7 nM	–	–	–	–	–	–
Clc1ccc(OCCc2ccccc2)c(OC2CNC2)c1 [Example 186]	53 nM	79 nM	5 nM	14 nM	33 nM	8 nM	–	–	–	–	–	–
Brc1ccc(OCCc2ccccc2)c(OC2CNC2)c1 [Example 195, 3-(5-Bromo-2-phenethyloxy-phenoxy)-azetidine]	60 nM	42 nM	2 nM	10 nM	27 nM	4 nM	–	–	–	–	–	–
Clc1ccc(OC2CN(c3ccccc3)C2)c(OC2CNC2)c1 [Example 222, 3-[5-Chloro-2-(1-phenyl-azetidin-3-ol)-phenoxy]-azetidine]	2110 nM	–	–	–	–	–	1010 nM	18 nM	–	–	–	–
Brc1ccc(Oc2ccccc2)c(OC2CNC2)c1 [Example 244, 3-(5-Bromo-2-phenoxy-phenoxy)-azetidine]	5000 nM	–	–	–	–	–	–	20 nM	251 nM	46 nM	–	–
Cc1ccc(Oc2cc(Cl)ccc2O[C@H]2CCNC2)cc1 [Example 266, (S)-3-(4-Chloro-2-p-tolyloxy-phenoxy)-pyrrolidine]	–	–	–	–	–	–	230 nM	> 10000 nM	–	–	150 nM	130 nM
Cc1ccc(Oc2cc(Cl)ccc2O[C@@H]2CCNC2)cc1 [Example 267, (R)-3-(4-Chloro-2-p-tolyloxy-phenoxy)-pyrrolidine]	–	–	–	–	–	–	210 nM	2300 nM	–	–	120 nM	65 nM
Cc1ccc(Oc2cc(Cl)ccc2O[C@@H]2CCN(C)C2)cc1 [Example 268, (R)-3-(4-Chloro-2-p-tolyloxy-phenoxy)-1-methyl-pyrrolidine]	–	–	–	–	–	–	380 nM	820 nM	–	–	150 nM	130 nM
Fc1ccc(Oc2cc(Cl)ccc2O[C@H]2CCNC2)cc1 [Example 269, (S)-3-[4-Chloro-2-(4-fluoro-phenoxy)-phenoxy]-pyrrolidine]	–	–	–	–	–	–	400 nM	> 10000 nM	–	–	190 nM	500 nM
Fc1ccc(Oc2cc(Cl)ccc2O[C@@H]2CCNC2)cc1 [Example 270, (R)-3-[4-Chloro-2-(4-fluoro-phenoxy)-phenoxy]-pyrrolidine]	–	–	–	–	–	–	240 nM	1000 nM	–	–	120 nM	75 nM
CN1CC[C@@H](Oc2ccc(Cl)cc2Oc2ccc(F)cc2)C1 [Example 271, (R)-3-[4-Chloro-2-(4-fluoro-phenoxy)-phenoxy]-1-methyl-pyrrolidine]	–	–	–	–	–	–	350 nM	660 nM	–	–	78 nM	98 nM
Cc1ccccc1Oc1cc(Cl)ccc1O[C@H]1CCNC1 [Example 272, (S)-3-(4-Chloro-2-o-tolyloxy-phenoxy)-pyrrolidine]	–	–	–	–	–	–	330 nM	> 10000 nM	–	–	220 nM	310 nM
Cc1cccc(Oc2cc(Cl)ccc2O[C@H]2CCNC2)c1 [Example 273, (S)-3-(4-Chloro-2-m-tolyloxy-phenoxy)-pyrrolidine]	–	–	–	–	–	–	150 nM	> 5000 nM	–	–	82 nM	160 nM
